The values that follow are results of earlier work, collected in PMC10623564, “Ruthenium-Based Photoactivated Chemotherapy” (Journal of the American Chemical Society, 2023).

Like-named read-outs stand apart in the source and are kept apart here. Marks after values point to notes of the source that are not given here.

In one series the test system is CYP3A4. The arrangement: method as in PMID 34110801. The settings on record: Figure 8c, read-out: IC50, CYP3A4 protein activity.
The conditions of series [1]: for φPS, photosubstitution of one axial MeCN by chloride: 298 K, in CH2Cl2; for φPS, mtep photosubstitution: in acetonitrile (521 nm printed for 23^+).
For series [2] the following is noted: for φΔ, singlet oxygen (1O2) generation quantum yield: in CD3OD solution.
The conditions of series [3]: conditions not given.
A further series deals with NAMPT. The arrangement: method as in PMID 28666065.
The next series concerns cancer cells. The arrangement: method as in PMID 30155140. The settings on record: photosubstitution of the axial dmso ligand.
Experiment in series [4]: not given
This is another data set of the same source.

The subject of another series is A431 skin cancer cells. The arrangement: method as in PMID 28666065.
For series [5], the system named is orthotopic CRMM1 eye tumor model. The arrangement: method as in PMID 35774173.
Series [6] deals with CRMM1 conjunctival melanoma cancer cell line. The arrangement: method as in PMID 35774173. The settings on record: CRMM1 cells, green light.
Series [7] deals with PC3Pro4 ectopic prostate zebrafish tumor model. The arrangement: method as in PMID 35774173. The settings on record: compound in water or intravenous injection, green light.
The subject of series [8] is CRMM2 conjunctival melanoma cancer cell line. The arrangement: method as in PMID 35774173. The settings on record: CRMM2 cells, green light.
Series [9] has as its system PC3Pro4 prostate cancer cell lines. The arrangement: method as in PMID 35774173. The settings on record: PC3Pro4 cells, green light.
[10] abbreviates: λexc 450 nm, in acetonitrile, room temperature.
The mark [11] stands for this setting: λexc 450 nm, in water, room temperature.
[12] abbreviates: λexc not given, in water, room temperature.
Where [13] appears, read: λexc 521 nm, in acetonitrile, room temperature.

On to `CC(C)(C)OC(=O)N[C@H](CSCCC(=O)NCc1cccnc1)Cc1ccccc1` [compound 24], for which, in the series on CYP3A4, the concentration for half-maximal inhibition (IC50) is 1.5 µM.

Consider `[Ru+2].c1ccc(-c2ccccn2)nc1.c1ccc(-c2ccccn2)nc1.c1ccc(-c2ccccn2)nc1` [[Ru(bpy)3]^2+, reference compound], for which the “φPS, quantum yield for photosubstitution” value is on record as 0.00053 (436) ^e in series [1] (λexc 436 nm, at 363 K in 0.1 M aqueous HCl) and 0 (450) ^f in series [1] (setting [10]). In addition, in series [2] (conditions not given), the “φΔ (generator of 1O2)” value was “≈ 0.73”. Besides, the “φP (phosphorescence)” value in [3] is listed as “≈ 0.02”.

For `CC#N.CC#N.[Ru+2].c1ccc(-c2ccccn2)nc1.c1ccc(-c2ccccn2)nc1` [[Ru(bpy)2(MeCN)2]^2+, reference compound], the “φPS, quantum yield for photosubstitution” value in [1] (setting [11]) is given as 0.22 (450) ^j; in [1] (λexc printed as 40098 nm, in water, room temperature), 0.21 (40098) ^j.

Regarding `N.N.[Ru+2].c1ccc(-c2ccccn2)nc1.c1ccc(-c2ccccn2)nc1` [8^2+, [Ru(bpy)2(NH3)2]^2+], in series [1] (λexc 350 nm, in water, room temperature), the “φPS, quantum yield for photosubstitution” value is 0.024 (350) ^j.

For `CP(C)C.[Ru+2].c1c[nH]cn1.c1ccc(-c2ccccn2)nc1.c1ccc(-c2ccccn2)nc1` [trans-9^2+, trans-[Ru(bpy)2(PMe3)(ImH)]^2+], the absorption maximum is listed as 464 nm. Also, the “φPS, quantum yield for photosubstitution” value in series [1] (setting [12]) was 0.23 ^j.

With `Cc1cccc(-c2cccc(C)n2)n1.[Cl-].[Cl][Ru+].c1ccc(-c2cccc(-c3ccccn3)n2)nc1` [[Ru(try)(dmbpy)Cl]Cl, [Ru(tpy)(dmbpy)Cl]Cl, reference compound], the half-inhibitory concentration (IC50) in the series with CYP3A4 is 50 µM.

Consider `CC#N.CC#N.CC#N.[Ru+2].c1ccc(-c2cccc(-c3ccccn3)n2)nc1` [[Ru(tpy)(MeCN)3]^2+, reference compound], for which the results for the “φPS, photosubstitution of one axial MeCN by chloride” value in [1] (436 nm) and in [1] (480 nm) were 0.040 and 0.041, respectively.

As for `Oc1cccc(-c2cccc(O)n2)n1.[Ru+2].c1ccc(-c2ccccn2)nc1.c1ccc(-c2ccccn2)nc1` [3^2+, [Ru(bpy)2(6,6′-dOHbpy)]^2+], the “φPS, quantum yield for photosubstitution” value in series [1] (λexc 450 nm, in aqueous solution at pH 5.0) is listed as 0.0058 (450) ^g; in [1] (λexc 450 nm, in aqueous solution at pH 7.5) it was 0.0012 (450) ^h. For the same compound, the λmax^MLCT is, setting by setting: (Table 1 row with φPS in aqueous solution at pH 5.0) 462 nm; (Table 1 row with φPS in aqueous solution at pH 7.5) 493 nm. For the same compound, the entries for the “φΔ, singlet oxygen (1O2) generation quantum yield” value in series [2] (Table 1 row with φPS at pH 5.0) and in series [2] (Table 1 row with φPS at pH 7.5) were 0.041 ^i and 0.18 ^i, respectively.

As to `CC(C)(C)c1ccc(S(=O)(=O)NCc2ccc(C(=O)Nc3cccnc3)cc2)cc1` [STF31, reference compound], the half-inhibitory concentration (IC50) in the series with NAMPT (uncaged inhibitor, read-out: IC50, NAMPT inhibition) was 0.25 µM.

As to `CP(C)C.[Ru+2].c1c[nH]cn1.c1ccc(-c2ccccn2)nc1.c1ccc(-c2ccccn2)nc1` [cis-9^2+, cis-[Ru(bpy)2(PMe3)(ImH)]^2+], the absorption maximum is on record as 432 nm. Also, the “φPS, quantum yield for photosubstitution” value in [1] (setting [12]) was 0.10 ^j.

Take `CSCCc1ccccn1.[Ru+2].c1ccc(-c2ccccn2)nc1.c1ccc(-c2ccccn2)nc1` [[Ru(bpy)2(mtep)]^2+, reference compound]: the “φPS, mtep photosubstitution” value in series [1] is on record as 0.0030.

Regarding `Cc1cccc(-c2cccc(C)n2)n1.[Ru+2].c1ccc(-c2ccccn2)nc1.c1ccc(-c2ccccn2)nc1` [2^2+, [Ru(bpy)2(dmbpy)]^2+], the “φPS, quantum yield for photosubstitution” value in [1] (λexc 413 nm, in acetonitrile, room temperature) is listed as 0.05 (413) ^f.

As for [Ru(bapbpy)(dmso)(OH2)]^+ [10^2+], the “φPS, quantum yield for photosubstitution” value in series [1] (setting [11]) is listed as 0.003 (450) ^j. Moreover, in the series on cancer cells, the “effect of light irradiation performed in cancer cells” value is on record as “led to cell death”.

In the case of `CS(C)=O.[Ru+2].c1ccc(-c2cccc(-c3ccccn3)n2)nc1.c1ccc(-c2ccccn2)nc1` [[Ru(tpy)(bpy)(dmso)]^2+, reference compound], the “quantum yield of photosubstitution of dmso by acetonitrile” value in [1] (at 450 nm) is on record as 0.016. In [1] (setting [10]), the “φPS, quantum yield for photosubstitution” value was 0.016 (450) ^f.

For the compound `CC#N.CC(=O)C=C(C)[O][Ru+].c1ccc(-c2cccc(-c3ccccn3)n2)nc1` [1^+, [Ru(tpy)(acac)(MeCN)]^+], the “φPS, quantum yield for photosubstitution” value in series [1] (setting [11]) is 0.014 (450) ^j. Further, the “toxicity in the dark” value in series [4] (dark) is “quite toxic in the dark”.

As to `CSCCO.[Ru+2].c1ccc(-c2cccc(-c3ccccn3)n2)nc1.c1ccc(-c2ccccn2)nc1` [[Ru(tpy)(bpy)(Hmte)]^2+, reference compound], in series [1] (λexc 452 nm, in water, room temperature), the “φPS, quantum yield for photosubstitution” value was 0.022 (452) ^j.

Take `CSCCc1ccccn1.[Ru+][c]1ccccc1-c1ccccn1.c1ccc(-c2ccccn2)nc1` [23^+, [Ru(bpy)(phpy)(mtep)]^+]: the “φPS, mtep photosubstitution” value in [1] is 0.00035. Besides, the “φPS, quantum yield for photosubstitution” value in series [1] (setting [13]) is on record as 0.00035 (521) ^f.

For the compound `O.[Ru+2].c1ccc(-c2cccc(-c3ccccn3)n2)nc1.c1ccc(-c2ccccn2)nc1` [[Ru(tpy)(bpy)(OH2)]^2+, reference compound], the “toxicity of the complex by itself” value in series [4] is “poorly toxic”.

Turning to `CC(C)(C)OC(=O)N[C@H](CSCCC(=O)NCc1cccnc1)Cc1ccccc1.Cc1cccc(-c2cccc(C)n2)n1.[Ru+2].c1ccc(-c2cccc(-c3ccccn3)n2)nc1` [11^2+, [Ru(tpy)(dmbpy)(R-py)]^2+], the “φPS, quantum yield for photosubstitution” value in series [1] (λexc 500 nm, in acetonitrile, room temperature) is 0.31 (500) ^f; in series [1] (λexc 500 nm, in water, room temperature), 0.15 (500) ^j. For the same compound, the results for the IC50 with CYP3A4 (after light activation) and in the series on CYP3A4 (in the dark) were 2.2 µM and 0.9 µM, respectively.

For the compound `CC#N.CC#N.[Ru+2].c1ccc(-c2ccccn2)nc1.c1ccc2cc3nc4c5cccnc5c5ncccc5c4nc3cc2c1` [17^2+, [Ru(bpy)(dppn)(MeCN)2]^2+], in series [1] (λexc 400 nm, in water, room temperature), the “φPS, quantum yield for photosubstitution” value was 0.002 (400) ^j.

On to `CC(C)(C)c1ccc(S(=O)(=O)NCc2ccc(C(=O)Nc3cccnc3)cc2)cc1.[Ru+2].c1ccc(-c2cccc(-c3ccccn3)n2)nc1.c1ccc2nc(-c3ccc4ccccc4n3)ccc2c1` [12^2+, [Ru(tpy)(biq)(STF31)]^2+], for which the “PI value (photoindex)” value with A431 skin cancer cells (A431 cells, normoxia (21% O2)) is given as 3.3; with A431 skin cancer cells (hypoxic A431 cells (1% O2)), 3.6. Also, the concentration giving a half-maximal response (EC50) in the series with A431 skin cancer cells (A431 skin cancer cells, normoxia, dark) was 23.6 µM. Moreover, the “φPS, quantum yield for photosubstitution” value in series [1] (λexc 625 nm, in water, room temperature) is reported as 0.013 (625) ^j. Moreover, the “λmax (absorption maximum)” value (Figure 6 bottom) is reported as 531 nm. In addition, the “εexc, molar absorption coefficient at the excitation wavelength” value (λexc = 625 nm (red light)) was 379 M^–1·cm^–1. Further, the “loss of potency on caging relative to STF31” value with NAMPT (NAMPT, dark) is 18 times. For the same compound, the concentration for half-maximal inhibition (IC50) in the series on NAMPT (caged compound in the dark, read-out: IC50,dark, NAMPT inhibition) was 4.8 µM.

For `CSCc1ccccn1.[Ru+2].c1ccc(-c2ccccn2)nc1.c1ccc(-c2ccnc3c2ccc2c(-c4ccccc4)ccnc23)cc1` [5^2+, [Ru(dpp)(bpy)(mtmp)]^2+], in series [1] (in deaerated acetonitrile), the photosubstitution quantum yield is given as 0.11. Moreover, the “φPS, quantum yield for photosubstitution” value in series [1] (setting [13]) was 0.111 (521) ^f. The activation in vivo entry in series [5] (four consecutive PACT treatments of 90 min irradiation (114 J/cm^2) each, 520 nm) is given as “clear activation”. For the same compound, the “antitumor activity in vivo” value is given as “good antitumor activity” in series [5] (orthotopic eye tumor model, retro-orbital injection, green light (520 nm, 114 J/cm^2)) and “no antitumor activity” in series [7]. For the same compound, the “PI value (photoindex)” value in [6] is listed as 8.5; in series [8] it was 8.8; in [9], more than 31.

One may read the IC50 as the concentration needed to halve the response being measured. By EC50 is commonly meant the concentration that produces a half-maximal response.
